Test results published in ChEMBL document CHEMBL5113479, “Pyrido[2,3-d]pyrimidine-2,4(1H,3H)-dione derivatives as RAF-MEK-ERK pathway signaling pathway blockers: Synthesis, cytotoxic activity, mechanistic investigation and structure-activity relationships” (Eur J Med Chem, 2022).
Values belong to the molecule of their own block, whether it stands above or below them. Activity calls are given as the source filed them. No cut-off for these calls is given here.

Experiments:
MCF7 = test: Antiproliferative activity against human MCF7 cells assessed as inhibition of cell growth measured after 72 hrs by CCK8 assay; type: functional, cell-based; conditions: MCF7, 72 h
[1] = Cytotoxicity against human C-28/I2 cells; type: toxicity, cell-based
A-375 [2] = test: Antiproliferative activity against human A-375 cells assessed as inhibition of cell growth measured after 72 hrs by CCK8 assay; type: functional, cell-based; conditions: A-375, 72 h
A-375 [3] = test: Cytotoxicity against human A-375 cells assessed as inhibition of cell growth; type: functional, cell-based
SK-MEL-2 [4] = test: Antiproliferative activity against human SK-MEL-2 cells assessed as inhibition of cell growth; type: functional, cell-based
SK-HEP1 [5] = test: Inhibition of colony formation in human SK-HEP1 cells assessed as reduction in number of colonies at 2 uM measured after 7 days by crystal violet staining based assay; type: functional; conditions: SK-HEP1, 168 h, time 7 day
[6] = biological target: T1, Mitogen-activated protein kinase; ERK1/ERK2 (Homo sapiens) (UniProt P27361+P28482); test: Inhibition of intracellular ERK1/2 phosphorylation in human SK-HEP1 cells at 5 uM by Western blot analysis; type: cell-based
T1 sequence (P27361 whole entry, looked up): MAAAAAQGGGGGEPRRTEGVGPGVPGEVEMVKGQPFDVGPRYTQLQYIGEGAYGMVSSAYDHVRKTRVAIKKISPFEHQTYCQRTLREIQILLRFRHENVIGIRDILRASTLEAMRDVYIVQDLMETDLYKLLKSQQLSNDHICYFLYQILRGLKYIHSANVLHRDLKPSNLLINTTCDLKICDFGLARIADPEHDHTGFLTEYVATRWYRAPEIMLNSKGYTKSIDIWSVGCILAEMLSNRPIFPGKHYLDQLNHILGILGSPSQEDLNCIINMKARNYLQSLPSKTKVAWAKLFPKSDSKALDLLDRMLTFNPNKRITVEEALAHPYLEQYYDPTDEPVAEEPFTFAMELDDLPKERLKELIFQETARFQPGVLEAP
T1 sequence (P28482 whole entry, looked up): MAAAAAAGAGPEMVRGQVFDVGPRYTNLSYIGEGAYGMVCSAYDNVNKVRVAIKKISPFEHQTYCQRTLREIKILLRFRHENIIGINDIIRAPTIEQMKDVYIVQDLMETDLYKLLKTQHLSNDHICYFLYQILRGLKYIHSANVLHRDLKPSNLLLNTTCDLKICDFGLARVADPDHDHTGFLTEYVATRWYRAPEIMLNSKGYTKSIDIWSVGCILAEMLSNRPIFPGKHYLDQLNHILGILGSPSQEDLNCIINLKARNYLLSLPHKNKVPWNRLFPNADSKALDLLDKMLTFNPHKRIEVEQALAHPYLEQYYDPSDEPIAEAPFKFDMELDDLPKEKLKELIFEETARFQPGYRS

SK-HEP1 [7] = test: Induction of cell cycle arrest in human SK-HEP1 cells assessed as accumulation of cells at S phase at 1.25 uM measured after 24 hrs by propidium iodide staining based flow cytometric analysis (reference value: 33.08 %); type: functional
SK-HEP1 [8] = test: Induction of cell cycle arrest in human SK-HEP1 cells assessed as accumulation of cells at G2/M phase at 1.25 uM measured after 24 hrs by propidium iodide staining based flow cytometric analysis (reference value: 18.32 %); type: functional
A-375 [9] = test: Induction of apoptosis in human A-375 cells assessed as late apoptotic cells at 1.25 to 5 uM measured after 48 hrs by AnnexinV-FITC/propidium iodide staining based flow cytometry analysis (reference value: 1.61 %); type: functional; conditions: dose 1.25-5 µM
SK-HEP1 [10] = test: Induction of apoptosis in human SK-HEP1 cells assessed as upregulation of activated caspase-9 protein expression at 1 to 2 uM by Western blot analysis; type: functional, cell-based; conditions: dose 1-2 µM
SK-HEP1 [11] = test: Inhibition of colony formation in human SK-HEP1 cells assessed as reduction in number of colonies at 0.2 uM measured after 7 days by crystal violet staining based assay; type: functional, cell-based; conditions: time 7.0 day
SK-HEP1 [12] = test: Antiproliferative activity against human SK-HEP1 cells assessed as inhibition of cell growth measured after 72 hrs by CCK8 assay; type: functional, cell-based; conditions: SK-HEP1, 72 h
SK-HEP1 [13] = test: Induction of cell cycle arrest in human SK-HEP1 cells assessed as accumulation of cells at G0/G1 phase at 5 uM measured after 24 hrs by propidium iodide staining based flow cytometric analysis (reference value: 48.40 %); type: functional
SK-HEP1 [14] = test: Induction of cell cycle arrest in human SK-HEP1 cells assessed as accumulation of cells at G2/M phase at 5 uM measured after 24 hrs by propidium iodide staining based flow cytometric analysis (reference value: 18.32 %); type: functional
SK-HEP1 [15] = test: Induction of apoptosis in human SK-HEP1 cells assessed as upregulation of activated caspase-3 protein expression at 1 to 2 uM by Western blot analysis; type: functional, cell-based; conditions: dose 1-2 µM
SK-HEP1 [16] = test: Induction of apoptosis in human SK-HEP1 cells assessed as downregulation of ERK2 expression at 2.5 uM measured after 48 hrs by fluorescent quantitative PCR analysis relative to control; type: functional
SK-HEP1 [17] = test: Antiproliferative activity against human SK-HEP1 cells cultured as 3D spheroids assessed as appearance of flattened spheroids at 10 uM measured after 48 hrs by fluorescence microscopic analysis; type: functional, cell-based
SK-HEP1 [18] = test: Induction of cell cycle arrest in human SK-HEP1 cells assessed as accumulation of cells at S phase at 5 uM measured after 24 hrs by propidium iodide staining based flow cytometric analysis (reference value: 33.08 %); type: functional
SK-HEP1 [19] = test: Antiproliferative activity against human SK-HEP1 cells cultured as 3D spheroids assessed as appearance of crumbled spheroids at 10 uM measured after 120 hrs by fluorescence microscopic analysis; type: functional, cell-based
SK-HEP1 [20] = test: Induction of cell cycle arrest in human SK-HEP1 cells assessed as accumulation of cells at S phase at 2.5 uM measured after 24 hrs by propidium iodide staining based flow cytometric analysis (reference value: 33.08 %); type: functional
SK-MEL-2 [21] = test: Antiproliferative activity against human SK-MEL-2 cells assessed as inhibition of cell growth measured after 72 hrs by CCK8 assay; type: functional, cell-based; conditions: SK-MEL-2, 72 h
SK-HEP1 [22] = test: Induction of apoptosis in human SK-HEP1 cells assessed as downregulation of ERK1/2 protein expression by Western blot analysis; type: functional, cell-based; conditions: dose 1-5 µM, DDE = dose-dependent effect
SK-HEP1 [23] = test: Induction of apoptosis in human SK-HEP1 cells assessed as downregulation of B-Raf protein expression by Western blot analysis; type: functional, cell-based; conditions: dose 1-5 µM, DDE = dose-dependent effect
[24] = Cytotoxicity against human C-28/I2 cells measured after 72 hrs by CCK8 assay; type: toxicity, cell-based
SK-HEP1 [25] = test: Induction of cell cycle arrest in human SK-HEP1 cells assessed as accumulation of cells at G0/G1 phase at 1.25 uM measured after 24 hrs by propidium iodide staining based flow cytometric analysis (reference value: 48.40 %); type: functional
[26] = biological target: T1, Mitogen-activated protein kinase; ERK1/ERK2 (Homo sapiens); test: Inhibition of ERK1/2 phosphorylation in human SK-HEP1 cells by Western blot analysis; type: cell-based; conditions: dose 1-5 µM, DDE = dose-dependent effect
SK-HEP1 [27] = test: Antiproliferative activity against human SK-HEP1 cells cultured as 3D spheroids assessed as appearance of collapsed spheroids at 10 uM measured after 96 hrs by fluorescence microscopic analysis; type: functional, cell-based
SK-HEP1 [28] = test: Induction of apoptosis in human SK-HEP1 cells assessed as downregulation of ERK1 expression at 2.5 uM measured after 48 hrs by fluorescent quantitative PCR analysis relative to control; type: functional
SK-HEP1 [29] = test: Induction of ROS production in human SK-HEP1 cells at 1 to 2 uM measured after 24 hrs by DCFH-DA staining based confocal microscopic and flow cytometry analysis; type: functional, cell-based; conditions: dose 1-2 µM
SK-HEP1 [30] = test: Inhibition of cell migration in human SK-HEP1 cells at 2.5 uM measured after 12 to 24 hrs by inverted microscopy based wound healing assay; type: functional; conditions: time 12-24 hrs
SK-HEP1 [31] = test: Inhibition of MEK1/2 phosphorylation in human SK-HEP1 cells by Western blot analysis; type: cell-based; conditions: dose 1-5 µM, DDE = dose-dependent effect
[32] = biological target: T1, Mitogen-activated protein kinase; ERK1/ERK2 (Homo sapiens); test: Inhibition of intracellular ERK1/2 phosphorylation in human A-375 cells at 5 uM by Western blot analysis; type: cell-based
SK-HEP1 [33] = test: Induction of cell cycle arrest in human SK-HEP1 cells assessed as accumulation of cells at G2/M phase at 2.5 uM measured after 24 hrs by propidium iodide staining based flow cytometric analysis (reference value: 18.32 %); type: functional
SK-HEP1 [34] = test: Induction of apoptosis in human SK-HEP1 cells assessed as late apoptotic cells at 1.25 to 5 uM measured after 48 hrs by AnnexinV-FITC/propidium iodide staining based flow cytometry analysis (reference value: 0.36 %); type: functional; conditions: dose 1.25-5 µM
SK-HEP1 [35] = test: Induction of cell cycle arrest in human SK-HEP1 cells assessed as accumulation of cells at G0/G1 phase at 2.5 uM measured after 24 hrs by propidium iodide staining based flow cytometric analysis (reference value: 48.40 %); type: functional

IC50 (MCF7): 9.98 µM | IC50 (A-375 [2]): 24.5 µM | IC50 (SK-MEL-2 [4]): 13.7 µM
Structure (SMILES): O=c1[nH]c2c(c(O)c1Cc1ccccc1)c(=O)n(-c1ccc(OC(F)(F)F)cc1)c(=O)n2-c1ccc(OC(F)(F)F)cc1
CC50 [1]: 35.9 µM | IC50 (A-375 [3]): 12.8 µM

IC50 (MCF7): 3.15 µM | inhibition [6]: Active | IC50 (SK-HEP1 [12]): 2.04 µM | IC50 (A-375 [2]): 5.2 µM | IC50 (SK-MEL-2 [21]): 4.79 µM | inhibition [26]: Dde | inhibition [32]: Active
Structure (SMILES): CN1CCN(c2cc(NCC(=O)Nc3cccc(Cl)c3)c3c(=O)n(C)c(=O)n(C)c3n2)CC1
inhibition at 2 µM (SK-HEP1 [5]): 100% | Activity (SK-HEP1 [7]): 34.59% | Activity (SK-HEP1 [8]): 21.31% | Activity (A-375 [9]): 32.6% | Activity (SK-HEP1 [10]): Active | inhibition (SK-HEP1 [11]): Active | Activity (SK-HEP1 [13]): 44.85% | Activity (SK-HEP1 [14]): 23.92% | Activity (SK-HEP1 [15]): Active | Activity (SK-HEP1 [16]): 60% | Activity (SK-HEP1 [17]): Active | Activity (SK-HEP1 [18]): 31.23% | Activity (SK-HEP1 [19]): Active | Activity (SK-HEP1 [20]): 34.93% | Activity (SK-HEP1 [22]): Dde | Activity (SK-HEP1 [23]): Dde | CC50 at 72 h [24]: > 50 µM | Activity (SK-HEP1 [25]): 44.1% | Activity (SK-HEP1 [27]): Active | Activity (SK-HEP1 [28]): 70% | Activity (SK-HEP1 [29]): Active | inhibition (SK-HEP1 [30]): Active | inhibition (SK-HEP1 [31]): Dde | Activity (SK-HEP1 [33]): 19.98% | Activity (SK-HEP1 [34]): 42.4% | Activity (SK-HEP1 [35]): 45.09%
